Experimental data from ChEMBL document CHEMBL4393738, “Design of hybrid molecules as antimycobacterial compounds: Synthesis of isoniazid-naphthoquinone derivatives and their activity against susceptible and resistant strains of Mycobacterium tuberculosis” (Bioorg Med Chem, 2019).
Values after ≈ are worked out from the molar mass of the structure shown.

How the values were obtained:
Assay type in all cases: functional
[1] = test system: Mycobacterium tuberculosis; assay: Antimycobacterial activity against isoniazid resistant Mycobacterium tuberculosis H37Rv ATCC 27294 measured after 7 days by resazurin microtiter assay; details: H37Rv ATCC 27294, 168 h
[2] = test system: Mycobacterium tuberculosis; assay: Antimycobacterial activity against isoniazid resistant Mycobacterium tuberculosis ATCC 35822 after 7 days by resazurin microtiter assay; details: ATCC 35822, 168 h
[3] = test system: Mycobacterium tuberculosis; assay: Antimycobacterial activity against isoniazid resistant Mycobacterium tuberculosis measured after 7 days by resazurin microtiter assay; details: 168 h

Row | Compound | MIC [1] | MIC [2] | MIC [3]
1 | CC1(C)OC2=C(CC1Br)C(=O)C(=O)c1ccccc12 (stereo not drawn) | 6.25 µg/mL (≈ 19.5 µM) | 6.25 µg/mL (≈ 19.5 µM) | 3.12 µg/mL (≈ 9.71 µM)
2 | CC1(C)OC2=C(C(=O)C(=O)c3ccccc32)C1Nc1ccccc1 (stereo not drawn) | 3.12 µg/mL (≈ 9.77 µM) | 3.12 µg/mL (≈ 9.77 µM) | 6.25 µg/mL (≈ 19.6 µM)
3 | O=C1C(=O)c2ccccc2C2=C1CC(Cn1cc(-c3ccccc3)nn1)O2 (stereo not drawn) | 12.5 µg/mL (≈ 35 µM) | 25 µg/mL (≈ 70 µM) | 25 µg/mL (≈ 70 µM)
4 | CC1CC2=C(O1)c1ccccc1/C(=N/NC(=O)c1ccncc1)C2=O (stereo not drawn) | 12.5 µg/mL (≈ 37.5 µM) | 12.5 µg/mL (≈ 37.5 µM) | 25 µg/mL (≈ 75 µM)
5 | CC1(C)OC2=C(CC1I)C(=O)C(=O)c1ccccc12 (stereo not drawn) | 3.12 µg/mL (≈ 8.47 µM) | 3.12 µg/mL (≈ 8.47 µM) | 6.25 µg/mL (≈ 17 µM)
6 | CC1(C)OC2=C(C(=O)/C(=N\NC(=O)c3ccncc3)c3ccccc32)[C@H](n2cc(-c3ccccc3)nn2)[C@H]1Br | 200 µg/mL (≈ 343 µM) | 200 µg/mL (≈ 343 µM) | > 200 µg/mL
7 | CC1(C)CC2=C(O1)c1ccccc1/C(=N/NC(=O)c1ccncc1)C2=O | 0.78 µg/mL (≈ 2.25 µM) | 50 µg/mL (≈ 144 µM) | 6.25 µg/mL (≈ 18 µM)
8 | CC1(C)OC2=C(CC1Br)C(=O)/C(=N\NC(=O)c1ccncc1)c1ccccc12 (stereo not drawn) | 12.5 µg/mL (≈ 28.4 µM) | 12.5 µg/mL (≈ 28.4 µM) | 12.5 µg/mL (≈ 28.4 µM)
9 | CC1(C)OC2=C(C(=O)/C(=N\NC(=O)c3ccncc3)c3ccccc32)C1n1cc(-c2ccccc2)nn1 (stereo not drawn) | 12.5 µg/mL (≈ 25.5 µM) | 12.5 µg/mL (≈ 25.5 µM) | 12.5 µg/mL (≈ 25.5 µM)
10 | CC1(C)OC2=C(C(=O)C(=O)c3ccccc32)C1n1cc(-c2ccccc2)nn1 (stereo not drawn) | 6.25 µg/mL (≈ 16.8 µM) | 25 µg/mL (≈ 67.3 µM) | 25 µg/mL (≈ 67.3 µM)
11 | O=C1C2=C(OC(Cn3cc(-c4ccccc4)nn3)C2)c2ccccc2/C1=N/NC(=O)c1ccncc1 (stereo not drawn) | 12.5 µg/mL (≈ 26.2 µM) | 50 µg/mL (≈ 105 µM) | 50 µg/mL (≈ 105 µM)
12 | CC1(C)OC2=C(C(=O)/C(=N\NC(=O)c3ccncc3)c3ccccc32)C1Nc1ccccc1 (stereo not drawn) | 25 µg/mL (≈ 57 µM) | 100 µg/mL (≈ 228 µM) | 25 µg/mL (≈ 57 µM)
13 | CC1(C)OC2=C(C(=O)/C(=N\NC(=O)c3ccncc3)c3ccccc32)C1O (stereo not drawn) | 6.25 µg/mL (≈ 17.2 µM) | 200 µg/mL (≈ 550 µM) | 100 µg/mL (≈ 275 µM)
14 | CC1(C)CC2=C(O1)/C(=N\NC(=O)c1ccncc1)c1ccccc1C2=O | 25 µg/mL (≈ 72 µM) | 100 µg/mL (≈ 288 µM) | 200 µg/mL (≈ 576 µM)
15 | CC1(C)CCC2=C(O1)c1ccccc1/C(=N/NC(=O)c1ccncc1)C2=O | 0.78 µg/mL (≈ 2.16 µM) | 50 µg/mL (≈ 138 µM) | 6.25 µg/mL (≈ 17.3 µM)
16 | CC1(C)OC2=C(CC1I)C(=O)/C(=N\NC(=O)c1ccncc1)c1ccccc12 (stereo not drawn) | 100 µg/mL (≈ 205 µM) | 100 µg/mL (≈ 205 µM) | 100 µg/mL (≈ 205 µM)
17 | CC1(C)CCC2=C(O1)/C(=N\NC(=O)c1ccncc1)c1ccccc1C2=O | > 200 µg/mL | > 200 µg/mL | > 200 µg/mL
18 | CC1(C)OC2=C(C(=O)C(=O)c3ccccc32)C1O (stereo not drawn) | 12.5 µg/mL (≈ 51.2 µM) | 25 µg/mL (≈ 102 µM) | 25 µg/mL (≈ 102 µM)
19 | CC1(C)CC2=C(O1)C(=O)c1ccccc1C2=O | 12.5 µg/mL (≈ 54.8 µM) | 25 µg/mL (≈ 110 µM) | 25 µg/mL (≈ 110 µM)
20 | CC1(C)OC2=C(C(=O)C(=O)c3ccccc32)[C@H](n2cc(-c3ccccc3)nn2)[C@H]1Br (racemic) | 1.56 µg/mL (≈ 3.36 µM) | 6.25 µg/mL (≈ 13.5 µM) | 12.5 µg/mL (≈ 26.9 µM)
21 | CC1(C)CCC2=C(O1)C(=O)c1ccccc1C2=O [ALPHA-LAPACHONE] | 103 µg/mL (≈ 426 µM) |  | 
22 | NNC(=O)c1ccncc1 [ISONIAZID] | 0.03 µg/mL (≈ 0.219 µM) | 2 µg/mL (≈ 14.6 µM) | 0.25 µg/mL (≈ 1.82 µM)
23 | CC1(C)CCC2=C(O1)c1ccccc1C(=O)C2=O [LAPACHONE] | 1.56 to 6.25 µg/mL (≈ 6.44 to 25.8 µM) | 3.12 µg/mL (≈ 12.9 µM) | 6.25 µg/mL (≈ 25.8 µM)
24 | CC1(C)CC2=C(O1)c1ccccc1C(=O)C2=O [NOR-BETA-LAPACHONE] | 3.12 µg/mL (≈ 13.7 µM) | 12.5 µg/mL (≈ 54.8 µM) | 6.25 µg/mL (≈ 27.4 µM)
25 | CO[C@H]1/C=C/O[C@@]2(C)Oc3c(C)c(O)c4c(O)c(c(/C=N/N5CCN(C)CC5)c(O)c4c3C2=O)NC(=O)/C(C)=C\C=C\[C@H](C)[C@H](O)[C@@H](C)[C@@H](O)[C@@H](C)[C@H](OC(C)=O)[C@@H]1C [RIFAMPIN] | ≤ 0.03 µg/mL | ≤ 0.03 µg/mL | > 8 µg/mL
